Test results published in patent US8124793B2, “Derivatives of ethylene methanedisulfonate as cancer chemotherapeutic agents” (priority 2007, dated 2012).

Legend:
CCRF-CEM = experiment: NCI screen, growth of human tumor cells: Leukemia CCRF-CEM; format: cell-based; conditions: CCRF-CEM (Leukemia), 10^−4 molar
In short: (§1)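 Growth of human tumor cells, expressed as percent, was determined in the NCI screen. Test data list the cancer type and the molar concentration applied.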

K562 = experiment: NCI screen, growth of human tumor cells: Leukemia K562; format: cell-based; conditions: K562 (Leukemia), 10^−4 molar
In short: as §1

MOLT-4 = experiment: NCI screen, growth of human tumor cells: Leukemia MOLT-4; format: cell-based; conditions: MOLT-4 (Leukemia), 10^−4 molar
In short: as §1

HOP-92 = experiment: NCI screen, growth of human tumor cells: Non-Small Cell Lung HOP-92; format: cell-based; conditions: HOP-92 (Non-Small Cell Lung), 10^−4 molar
In short: as §1

NCI-H460 = experiment: NCI screen, growth of human tumor cells: Non-Small Cell Lung NCI-H460; format: cell-based; conditions: NCI-H460 (Non-Small Cell Lung), 10^−4 molar
In short: as §1

SNB-19 = experiment: NCI screen, growth of human tumor cells: CNS Cancer SNB-19; format: cell-based; conditions: SNB-19 (CNS Cancer), 10^−4 molar
In short: as §1

SNB-75 = experiment: NCI screen, growth of human tumor cells: CNS Cancer SNB-75; format: cell-based; conditions: SNB-75 (CNS Cancer), 10^−4 molar
In short: as §1

UACC-62 = experiment: NCI screen, growth of human tumor cells: Melanoma UACC-62; format: cell-based; conditions: UACC-62 (Melanoma), 10^−4 molar
In short: as §1

786-0 = experiment: NCI screen, growth of human tumor cells: Renal Cancer 786-0; format: cell-based; conditions: 786-0 (Renal Cancer), 10^−4 molar
In short: as §1

ACHN = experiment: NCI screen, growth of human tumor cells: Renal Cancer ACHN; format: cell-based; conditions: ACHN (Renal Cancer), 10^−4 molar
In short: as §1

CAKI-1 = experiment: NCI screen, growth of human tumor cells: Renal Cancer CAKI-1; format: cell-based; conditions: CAKI-1 (Renal Cancer), 10^−4 molar
In short: as §1

[1] = tested on: lymphocytic leukemia, lymphoid leukemia, melanocarcinoma, human breast xenograft and ovarian carcinoma; conditions: disclosure of U.S. Pat. No. 4,950,768; cited from earlier work

melting point: 176 to 180 °C
Structure (SMILES): O=S1(=O)CS(=O)(=O)OCCO1 [NSC 348948, ethylene methanedisulfonate]
percent of growth of human tumor cells (CCRF-CEM): −3%
percent of growth of human tumor cells (K562): 5%
percent of growth of human tumor cells (MOLT-4): 5%
percent of growth of human tumor cells (HOP-92): 6%
percent of growth of human tumor cells (NCI-H460): 6%
percent of growth of human tumor cells (SNB-19): 18%
percent of growth of human tumor cells (SNB-75): 18%
percent of growth of human tumor cells (UACC-62): −13%
percent of growth of human tumor cells (786-0): 24%
percent of growth of human tumor cells (ACHN): 22%
percent of growth of human tumor cells (CAKI-1): −6%
effectiveness in the treatment of mice cancers [1]: effective
